Data reported in US7935688B2, “Vitamin D-like compound” (Chugai Seiyaku Kabushiki Kaisha, priority 2005, dated 2011).

What was measured:
[1] = tested on: osteocalcin production in MG-63 cells; assay: Osteocalcin production in MG-63 cells (Gla-type Osteocalcin EIA); assay type: cell-based, human; conditions: (EC50 value of 1,25(OH)2D3/EC50 value of each compound)×100; eight hours exposure, then four days culture
Experimental: mg-63 was obtained from Institute for Fermentation, Osaka as a human osteoblast-like cell line. MG-63 cells were maintained and cultured in a MEM medium (Minimum essential medium; pH 7.0; Invitrogen Corporation, Carlsbad, Calif., USA) containing 5% fetal bovine serum (FBS; HyClone, Logan, Utah, USA).
MG-63 cells were adjusted to a density of 4.0×10^4 cells/mL, plated in a 96-well plate at 200 μL per well, and cultured under conditions of 37° C. and 5% carbon dioxide for 24 hours.
After removing the medium, MEM containing 5% charcoal/dextran treated FBS (DCC-FBS; Hyclone, Logan, Utah, USA) was added at 180 μL/well. The test substance (1.0×10^−3 mol/L) was diluted with dimethyl sulfoxide (DMSO) to 1.0×10^−4 mol/L, 1.0×10^−5 mol/L, 1.0×10^−6 mol/L, 1.0×10^−7 mol/L and 1.0×10^−8 mol/L. 1,25(OH)2D3 was used as a positive control. Like the test substance, 1,25(OH)2D3 was diluted with DMSO. 0.02 mL of the positive control and the test substance diluted 100-fold with MEM containing 5% DCC-FCS was added to each well of the 96-well plate, so that the final drug concentration was 1.0×10^−6 mol/L to 1.0×10^−11 mol/L. Thereafter, the cells were cultured under conditions of 37° C. and 5% carbon dioxide for eight hours.
After culturing for eight hours, the medium was removed, and MEM containing 5% DCC-FBS was added at 0.2 mL per well. The cells were cultured under conditions of 37° C. and 5% carbon dioxide for four days, and the medium was recovered. The medium was stored at −80° C. until osteocalcin measurement.
The Gla-type Osteocalcin EIA kit (Takara Bio Inc., Tokyo, Japan) was used for measurement of osteocalcin. Measurement was carried out using a microplate reader (Model 3550, Bio-Rad Laboratories, Inc., Hercules, Calif., USA) at a wavelength of 450 nm, and the results were analyzed by Microplate Manager III (Bio-Rad Laboratories, Inc., ver. 1.57).
The median effective concentration (EC50) was calculated from the osteocalcin concentration. Potency of induction of each compound was calculated as a ratio of EC50 of 1,25(OH)2D3 to EC50 of the compound. The relation between diseases and induction of osteocalcin production is described in Lancet (1984 May 19), 1 (8386), 1091-3; Steroids 66, 159-170 (2001); and Journal of Steroid Biochemistry & Molecular Biology 89-90, 269-271 (2004), for example.
The osteocalcin production level in MG-63 cells (%) was calculated by the formula: (EC50 value of 1,25(OH)2D3/EC50 value of each compound)×100.

[2] = tested on: Sprague-Dawley female rats subjected to ovariectomy (OVX); assay: Effect of increasing bone density in ovariectomized rats (dual X-ray bone densitometry); assay type: in vivo, rat; conditions: forcibly orally, five times per week, pathological control group (vehicle) = 100%
Experimental: The compound of the present invention was adjusted to each concentration using middle chain triglyceride (MCT) as a base. The adjusted solution was stored under shading at 4° C. until use.
Seven-week-old Sprague-Dawley (Crj:CD(SD)) female rats (Charles River Laboratories Japan, Inc.) were preliminarily bred for one week in an environment at a room temperature of 20 to 26° C., at a humidity of 35 to 75% and with an air change of 10 times or more per hour. The rats were allowed to freely take tap water and CE-2 (CLEA Japan, Inc.) as a feed.
After preliminary breeding, the animals were subjected to ovariectomy (OVX) and divided into groups (eight animals per group) on the day after the operation. Only MCT as a base was forcibly orally administered to the sham operation group (sham) and the pathological control group (OVX-vehicle) at a dose of 1 mL/kg (five times per week). The compound of the present invention was also forcibly orally administered at the same dose five times per week.
The animals were bred in a metabolic cage and urine was collected for 24 hours after the final administration. Blood was collected from the abdominal aorta under ether anesthesia for 24 hours after the final administration. The blood was allowed to stand at room temperature for 30 minutes and then centrifuged to provide serum. The femur and lumbar spine were collected and stored in 70% ethanol until bone density measurement.
The bone density of the femur and the second to fifth lumbar spines of the isolated lumbar spines was measured by the dual X-ray bone densitometry system DCS-600-EX (ALOKA). The distal femur bone density was measured for three […] regions out of 10 regions of the femur equally divided in length. The bone density in each site was described based on the bone density of the pathological control group (vehicle group) in each experiment as 100%.
The effects of the compounds of the present invention on the lumbar spine bone density are shown in Table 2 as an example of the obtained results.

Structure (SMILES)	Osteocalcin production level in MG-63 cells (%) [1]	further results
CCC(CC)(c1ccc(/C=C/C(O)(C(F)(F)F)C(F)(F)F)c(C)c1)c1ccc(-c2cccc(CC(=O)O)c2)c(C)c1 [Example 71, (4′-{1-ethyl-1-[3-methyl-4-((E)-4,4,4-trifluoro-3-hydroxy-3-trifluoromethyl-1-butenyl)-phenyl]-propyl}-2′-methyl-biphenyl-3-yl)-acetic Acid]	746%	Lumbar spine bone density (%) ([2]; 0.025 μg/kg): 110.58%; Lumbar spine bone density (%) ([2]; 0.05 μg/kg): 115.09%
CCC(CC)(c1ccc(/C=C/C(O)(C(F)(F)F)C(F)(F)F)c(C)c1)c1ccc(-c2nc(CC(=O)O)cs2)c(C)c1 [Example 76, [2-(4-{1-ethyl-1-[3-methyl-4-((E)-4,4,4-trifluoro-3-hydroxy-3-trifluoromethyl-1-butenyl)-phenyl]-propyl}-2-methyl-phenyl)-thiazol-4-yl]-acetic Acid]	407%	Lumbar spine bone density (%) ([2]; 0.015 μg/kg): 110.22%; Lumbar spine bone density (%) ([2]; 0.03 μg/kg): 111.00%
CCC(CC)(c1ccc(C#CC(O)(C(F)(F)F)C(F)(F)F)c(C)c1)c1ccc(-c2cncc(CC(=O)O)c2)c(C)c1 [Example 80, [5-(4-{1-ethyl-1-[3-methyl-4-(4,4,4-trifluoro-3-hydroxy-3-trifluoromethyl-1-butynyl)-phenyl]-propyl}-2-methyl-phenyl)-pyridin-3-yl]-acetic Acid]		Lumbar spine bone density (%) ([2]; 0.05 μg/kg): 110.75%; Lumbar spine bone density (%) ([2]; 0.1 μg/kg): 116.68%
CCC(CC)(c1ccc(/C=C/C2(O)CCCC2)c(C)c1)c1ccc(-c2ccc(CC(=O)[O-])c(F)c2)c(C)c1.[Na+] [Example 84, Sodium [4′-(1-ethyl-1-{4-[(E)-2-(1-hydroxy-cyclopentyl)-vinyl]-3-methyl-phenyl}-propyl)-3-fluoro-2′-methyl-biphenyl-4-yl]-acetate]	739%	
CCC(CC)(c1ccc(/C=C/C2(O)CCCC2)c(C)c1)c1ccc(-c2ccc(CC(=O)O)cn2)c(C)c1 [Example 85, {6-[4-(1-ethyl-1-{4-[(E)-2-(1-hydroxy-cyclopentyl)-vinyl]-3-methyl-phenyl}-propyl)-2-methyl-phenyl]-pyridin-3-yl}-acetic Acid]	765%	
CCC(CC)(c1ccc(/C=C/C2(O)CCCCC2)c(C)c1)c1ccc(-c2ccc(CC(=O)O)c(F)c2)c(C)c1 [Example 88, [4′-(1-ethyl-1-{4-[(E)-2-(1-hydroxy-cyclohexyl)-vinyl]-3-methyl-phenyl}-propyl)-3-fluoro-2′-methyl-biphenyl-4-yl]-acetic Acid]	4562%	
CCC(CC)(c1ccc(/C=C/C2(O)CCCCC2)c(C)c1)c1ccc(-c2cc(Cl)ccc2CC(=O)O)c(C)c1 [Example 89, [5-chloro-4′-(1-ethyl-1-{4-[(E)-2-(1-hydroxy-cyclohexyl)-vinyl]-3-methyl-phenyl}-propyl)-2′-methyl-biphenyl-2-yl]-acetic Acid]		Lumbar spine bone density (%) ([2]; 1.25 μg/kg): 109.24%; Lumbar spine bone density (%) ([2]; 2.5 μg/kg): 121.37%
CCC(CC)(c1ccc(/C=C/C2(O)CCCCC2)c(C)c1)c1ccc(-c2ccc(CC(=O)O)c(Cl)c2)c(C)c1 [Example 90, [3-chloro-4′-(1-ethyl-1-{4-[(E)-2-(1-hydroxy-cyclohexyl)-vinyl]-3-methyl-phenyl}-propyl)-2′-methyl-biphenyl-4-yl]-acetic Acid]	1604%	
CCC(CC)(c1ccc(/C=C/C2(O)CCCCC2)c(C)c1)c1ccc(-c2ccc(CC(=O)O)cn2)c(C)c1 [Example 91, {6-[4-(1-ethyl-1-{4-[(E)-2-(1-hydroxy-cyclohexyl)-vinyl]-3-methyl-phenyl}-propyl)-2-methyl-phenyl]-pyridin-3-yl}-acetic Acid]	1074%	
CCC(CC)(c1ccc(C#CC2(O)CCCC2)c(C)c1)c1ccc(-c2ccc(CC(=O)O)c(F)c2)c(C)c1 [Example 93, (4′-{1-ethyl-1-[4-(1-hydroxy-cyclopentylethynyl)-3-methyl-phenyl]-propyl}-3-fluoro-2′-methyl-biphenyl-4-yl)-acetic Acid]	487%	
CCC(CC)(c1ccc(C#CC2(O)CCCCC2)c(C)c1)c1ccc(-c2ccc(CC(=O)O)c(F)c2)c(C)c1 [Example 97, (4′-{1-ethyl-1-[4-(1-hydroxy-cyclohexylethynyl)-3-methyl-phenyl]-propyl}-3-fluoro-2′-methyl-biphenyl-4-yl)-acetic Acid]	533%	
CCC(CC)(c1ccc(OCC(O)C(C)(C)C)c(C)c1)c1ccc(-c2ccc(CC(=O)O)c(F)c2)c(C)c1 (stereo not drawn) [Example 100, (4′-{1-ethyl-1-[4-(2-hydroxy-3,3-dimethyl-butoxy)-3-methyl-phenyl]-propyl}-3-fluoro-2′-methyl-biphenyl-4-yl)-acetic Acid]	878%	
CCC(CC)(c1ccc(OCC(O)C(C)(C)C)c(C)c1)c1ccc(-c2ccc(CC(=O)O)cn2)c(C)c1 (stereo not drawn) [Example 101, [6-(4-{1-ethyl-1-[4-(2-hydroxy-3,3-dimethyl-butoxy)-3-methyl-phenyl]-propyl}-2-methyl-phenyl)-pyridin-3-yl]-acetic Acid]	508%	
CCC(CC)(c1ccc(-c2cncc(CC(=O)O)c2)cc1)c1ccc(OCC(O)C(C)(C)C)c(C)c1 (stereo not drawn) [Example 146, [5-(4-{1-ethyl-1-[4-(2-hydroxy-3,3-dimethyl-butoxy)-3-methyl-phenyl]-propyl}-phenyl)-pyridin-3-yl]-acetic Acid]	3721%	
CCC(CC)(c1ccc(-c2cncc(CC(=O)O)c2)cc1)c1ccc(C#CC2(O)CCCCC2)c(C)c1 [Example 147, [5-(4-{1-ethyl-1-[4-(1-hydroxy-cyclohexylethynyl)-3-methyl-phenyl]-propyl}-phenyl)-pyridin-3-yl]-acetic Acid]	1228%	
CCC(CC)(c1ccc(-c2cncc(CC(=O)O)c2)cc1)c1ccc(C#CC2(O)CCCC2)c(C)c1 [Example 148, [5-(4-{1-ethyl-1-[4-(1-hydroxy-cyclopentylethynyl)-3-methyl-phenyl]-propyl}-phenyl)-pyridin-3-yl]-acetic Acid]	1022%	
CCC(CC)(c1ccc(-c2cncc(CC(=O)O)c2)cc1)c1ccc(CCC2(O)CCCC2)c(C)c1 [Example 150, {5-[4-(1-ethyl-1-{4-[2-(1-hydroxy-cyclopentyl)-ethyl]-3-methyl-phenyl}-propyl)-phenyl]-pyridin-3-yl}-acetic Acid]	645%	
CCC(CC)(c1ccc(OCC(O)CO)c(C)c1)c1ccc(OCC(O)C(C)(C)C)c(C)c1 (stereo not drawn) [LG190178, reference compound]	185%	
